Source: ChEMBL document CHEMBL3045592, “Studies of O,O-dimethyl α-(2,4-dichlorophenoxyacetoxy)ethylphosphonate (HW02) as a new herbicide. 1. Synthesis and herbicidal activity of HW02 and analogues as novel inhibitors of pyruvate dehydrogenase complex” (J Agric Food Chem, 2011)

Assays:
[1] = system: Cucumis sativus; test: Herbicidal activity against Cucumis sativus Jin 4 (cucumber) assessed as inhibition of stem growth after 3 days; type: functional, organism-based; conditions: Jin 4, 72 h
[2] = system: Amaranthus retroflexus; test: Post-emergence herbicidal activity against Amaranthus retroflexus assessed as growth inhibition at 450 ai g/ha after 20 days by green house test; type: functional
[3] = system: Abutilon theophrasti; test: Post-emergence herbicidal activity against Abutilon theophrasti (velvetleaf) assessed as growth inhibition at 450 ai g/ha after 20 days by green house test; type: functional
[4] = system: Setaria viridis; test: Pre-emergence herbicidal activity against Setaria viridis (green foxtail) assessed as growth inhibition at 150 ai g/ha after 20 days by green house test; type: functional
[5] = system: Amaranthus spinosus; test: Pre-emergence herbicidal activity against Amaranthus spinosus assessed as growth inhibition at 75 ai g/ha after 20 days by green house test; type: functional
[6] = system: Chenopodium album; test: Post-emergence herbicidal activity against Chenopodium album assessed as growth inhibition at 75 ai g/ha after 20 days by green house test; type: functional
[7] = system: Brassica rapa subsp. oleifera; test: Post-emergence herbicidal activity against Brassica rapa subsp. oleifera Si Yue Man assessed as growth inhibition at 1500 ai g/ha after 20 days by green house test; type: functional
[8] = system: Amaranthus spinosus; test: Pre-emergence herbicidal activity against Amaranthus spinosus assessed as growth inhibition at 150 ai g/ha after 20 days by green house test; type: functional
[9] = system: Digitaria sanguinalis; test: Pre-emergence herbicidal activity against Digitaria sanguinalis (hairy crabgrass) assessed as growth inhibition at 150 ai g/ha after 20 days by green house test; type: functional
[10] = biological target: Pyruvate dehydrogenase complex (Vigna radiata var. radiata); test: Inhibition of PDHc in Vigna radiata var. radiata VC2778A shoot mitochondria assessed as decrease in rate of NADH formation using sodium pyruvate as substrate preincubated for 25 min before substrate addition measured after 1 min by spectrophotometric assay; type: protein-complex assay
[11] = system: Abutilon theophrasti; test: Pre-emergence herbicidal activity against Abutilon theophrasti (velvetleaf) assessed as growth inhibition at 150 ai g/ha after 20 days by green house test; type: functional
[12] = system: Amaranthus spinosus; test: Post-emergence herbicidal activity against Amaranthus spinosus assessed as growth inhibition at 75 ai g/ha after 20 days by green house test; type: functional
[13] = system: Chenopodium album; test: Pre-emergence herbicidal activity against Chenopodium album assessed as growth inhibition at 150 ai g/ha after 20 days by green house test; type: functional
[14] = system: Abutilon theophrasti; test: Post-emergence herbicidal activity against Abutilon theophrasti (velvetleaf) assessed as growth inhibition at 150 ai g/ha after 20 days by green house test; type: functional
[15] = system: Abutilon theophrasti; test: Post-emergence herbicidal activity against Abutilon theophrasti (velvetleaf) assessed as growth inhibition at 75 ai g/ha after 20 days by green house test; type: functional
[16] = system: Digitaria sanguinalis; test: Post-emergence herbicidal activity against Digitaria sanguinalis (hairy crabgrass) assessed as growth inhibition at 1500 ai g/ha after 20 days by green house test; type: functional
[17] = Toxicity against Oryza sativa (rice) assessed as growth inhibition at 450 ai g/ha post-emergent application measured after 20 days by green house crop selectivity test; type: organism-based; conditions: in vivo, read-out: GI
[18] = system: Amaranthus retroflexus; test: Pre-emergence herbicidal activity against Amaranthus retroflexus assessed as growth inhibition at 1500 ai g/ha after 20 days by green house test; type: functional
[19] = system: Digitaria sanguinalis; test: Pre-emergence herbicidal activity against Digitaria sanguinalis (hairy crabgrass) assessed as growth inhibition at 1500 ai g/ha after 20 days by green house test; type: functional
[20] = system: Setaria viridis; test: Post-emergence herbicidal activity against Setaria viridis (green foxtail) assessed as growth inhibition at 450 ai g/ha after 20 days by green house test; type: functional
[21] = system: Amaranthus retroflexus; test: Post-emergence herbicidal activity against Amaranthus retroflexus assessed as growth inhibition at 1500 ai g/ha after 20 days by green house test; type: functional
[22] = system: Echinochloa crus-galli; test: Pre-emergence herbicidal activity against Echinochloa crus-galli (barnyard grass) assessed as growth inhibition at 1500 ai g/ha after 20 days by green house test; type: functional
[23] = system: Brassica rapa subsp. oleifera; test: Pre-emergence herbicidal activity against Brassica rapa subsp. oleifera Si Yue Man assessed as growth inhibition at 1500 ai g/ha after 20 days by green house test; type: functional
[24] = system: Cucumis sativus; test: Herbicidal activity against Cucumis sativus Jin 4 (cucumber) assessed as inhibition of root growth after 3 days; type: functional, organism-based; conditions: Jin 4, 72 h
[25] = system: Echinochloa crus-galli; test: Post-emergence herbicidal activity against Echinochloa crus-galli (barnyard grass) assessed as growth inhibition at 1500 ai g/ha after 20 days by green house test; type: functional
[26] = system: Amaranthus spinosus; test: Post-emergence herbicidal activity against Amaranthus spinosus assessed as growth inhibition at 150 ai g/ha after 20 days by green house test; type: functional
[27] = system: Medicago sativa; test: Pre-emergence herbicidal activity against Medicago sativa (alfalfa) assessed as growth inhibition at 1500 ai g/ha after 20 days by green house test; type: functional
[28] = system: Setaria viridis; test: Post-emergence herbicidal activity against Setaria viridis (green foxtail) assessed as growth inhibition at 150 ai g/ha after 20 days by green house test; type: functional
[29] = system: Chenopodium album; test: Post-emergence herbicidal activity against Chenopodium album assessed as growth inhibition at 450 ai g/ha after 20 days by green house test; type: functional
[30] = system: Digitaria sanguinalis; test: Post-emergence herbicidal activity against Digitaria sanguinalis (hairy crabgrass) assessed as growth inhibition at 75 ai g/ha after 20 days by green house test; type: functional
[31] = system: Abutilon theophrasti; test: Pre-emergence herbicidal activity against Abutilon theophrasti (velvetleaf) assessed as growth inhibition at 75 ai g/ha after 20 days by green house test; type: functional
[32] = system: Abutilon theophrasti; test: Pre-emergence herbicidal activity against Abutilon theophrasti (velvetleaf) assessed as growth inhibition at 450 ai g/ha after 20 days by green house test; type: functional
[33] = system: Setaria viridis; test: Pre-emergence herbicidal activity against Setaria viridis (green foxtail) assessed as growth inhibition at 75 ai g/ha after 20 days by green house test; type: functional
[34] = system: Amaranthus spinosus; test: Post-emergence herbicidal activity against Amaranthus spinosus assessed as growth inhibition at 450 ai g/ha after 20 days by green house test; type: functional
[35] = system: Digitaria sanguinalis; test: Post-emergence herbicidal activity against Digitaria sanguinalis (hairy crabgrass) assessed as growth inhibition at 450 ai g/ha after 20 days by green house test; type: functional
[36] = system: Digitaria sanguinalis; test: Post-emergence herbicidal activity against Digitaria sanguinalis (hairy crabgrass) assessed as growth inhibition at 150 ai g/ha after 20 days by green house test; type: functional
[37] = system: Echinochloa crus-galli; test: Post-emergence herbicidal activity against Echinochloa crus-galli (barnyard grass) assessed as growth inhibition at 450 ai g/ha after 20 days by green house test; type: functional
[38] = system: Digitaria sanguinalis; test: Pre-emergence herbicidal activity against Digitaria sanguinalis (hairy crabgrass) assessed as growth inhibition at 75 ai g/ha after 20 days by green house test; type: functional
[39] = system: Medicago sativa; test: Post-emergence herbicidal activity against Medicago sativa (alfalfa) assessed as growth inhibition at 1500 ai g/ha after 20 days by green house test; type: functional
[40] = system: Setaria viridis; test: Pre-emergence herbicidal activity against Setaria viridis (green foxtail) assessed as growth inhibition at 450 ai g/ha after 20 days by green house test; type: functional
[41] = system: Brassica juncea; test: Post-emergence herbicidal activity against Brassica juncea assessed as growth inhibition at 450 ai g/ha after 20 days by green house test; type: functional
[42] = system: Chenopodium album; test: Pre-emergence herbicidal activity against Chenopodium album assessed as growth inhibition at 75 ai g/ha after 20 days by green house test; type: functional
[43] = system: Chenopodium album; test: Pre-emergence herbicidal activity against Chenopodium album assessed as growth inhibition at 450 ai g/ha after 20 days by green house test; type: functional
[44] = system: Chenopodium album; test: Post-emergence herbicidal activity against Chenopodium album assessed as growth inhibition at 150 ai g/ha after 20 days by green house test; type: functional
[45] = system: Setaria viridis; test: Post-emergence herbicidal activity against Setaria viridis (green foxtail) assessed as growth inhibition at 75 ai g/ha after 20 days by green house test; type: functional
[46] = system: Pisum sativum; test: Post-emergence herbicidal activity against Pisum sativum Zhongwan-2 (pea) assessed as growth inhibition at 450 ai g/ha after 20 days by green house test; conditions: Lathyrus oleraceus
[47] = system: Amaranthus spinosus; test: Pre-emergence herbicidal activity against Amaranthus spinosus assessed as growth inhibition at 450 ai g/ha after 20 days by green house test; type: functional
[48] = system: Digitaria sanguinalis; test: Pre-emergence herbicidal activity against Digitaria sanguinalis (hairy crabgrass) assessed as growth inhibition at 450 ai g/ha after 20 days by green house test; type: functional

## COP(=O)(OC)C(OC(=O)COc1ccc(Cl)cc1Cl)c1ccccc1 (stereo not drawn)
[1]
  IC50: 8.95 µM
[2]
  growth inhibition (GI): 87.5%
[3]
  growth inhibition (GI): 100%
[4]
  growth inhibition (GI): 0%
[5]
  growth inhibition (GI): 0%
[6]
  growth inhibition (GI): 82.5%
[7]
  growth inhibition (GI): 90%
[8]
  growth inhibition (GI): 0%
[9]
  growth inhibition (GI): 0%
[10]
  IC50: 95.4 µM
[11]
  growth inhibition (GI): 0%
[12]
  growth inhibition (GI): 62.5%
[13]
  growth inhibition (GI): 0%
[14]
  growth inhibition (GI): 92.5%
[15]
  growth inhibition (GI): 82.5%
[16]
  growth inhibition (GI): <=50%
[17]
  inhibition at 480 h: 10%
[18]
  growth inhibition (GI): 90%
[19]
  growth inhibition (GI): 50%
[20]
  growth inhibition (GI): 0%
[21]
  growth inhibition (GI): 90%
[22]
  growth inhibition (GI): 50%
[23]
  growth inhibition (GI): 90%
[24]
  IC50: 14.2 nM
[25]
  growth inhibition (GI): <=50%
[26]
  growth inhibition (GI): 70%
[27]
  growth inhibition (GI): 90%
[28]
  growth inhibition (GI): 0%
[29]
  growth inhibition (GI): 97.5%
[30]
  growth inhibition (GI): 0%
[31]
  growth inhibition (GI): 0%
[32]
  growth inhibition (GI): 0%
[33]
  growth inhibition (GI): 0%
[34]
  growth inhibition (GI): 87.5%
[35]
  growth inhibition (GI): 0%
[36]
  growth inhibition (GI): 0%
[37]
  growth inhibition (GI): 25%
[38]
  growth inhibition (GI): 0%
[39]
  growth inhibition (GI): 90%
[40]
  growth inhibition (GI): 30%
[41]
  growth inhibition (GI): 97.5%
[42]
  growth inhibition (GI): 0%
[43]
  growth inhibition (GI): 0%
[44]
  growth inhibition (GI): 92.5%
[45]
  growth inhibition (GI): 0%
[46]
  growth inhibition (GI): 96.5%
[47]
  growth inhibition (GI): 0%
[48]
  growth inhibition (GI): 45%
